Assay results: ChEMBL document CHEMBL5537158, “Polymyxins with Potent Antibacterial Activity against Colistin-Resistant Pathogens: Fine-Tuning Hydrophobicity with Unnatural Amino Acids” (J Med Chem, 2024)
Positions of bridges follow the written chain, without caps; N, C: chain ends. Non-standard residues stand in square brackets, D forms with d. Residues, ends and D or L forms follow the SMILES beside them. *: point of attachment. Phe(3,4,5-F3) = N[C@@H](Cc1cc(F)c(F)c(F)c1)C(=O)O; dPhe(3,4,5-F3) = N[C@H](Cc1cc(F)c(F)c(F)c1)C(=O)O; Phe(4-CF3) = N[C@@H](Cc1ccc(C(F)(F)F)cc1)C(=O)O; Phe(4-Br) = N[C@@H](Cc1ccc(Br)cc1)C(=O)O; Phe(4-Cl) = N[C@@H](Cc1ccc(Cl)cc1)C(=O)O; Phe(3-F) = N[C@@H](Cc1cccc(F)c1)C(=O)O; Phe(4-F) = N[C@@H](Cc1ccc(F)cc1)C(=O)O; dPhe(3-F) = N[C@H](Cc1cccc(F)c1)C(=O)O; Phe(2-F) = N[C@@H](Cc1ccccc1F)C(=O)O; d(hhPhe) = N[C@H](CCCc1ccccc1)C(=O)O; dPhe(2-F) = N[C@H](Cc1ccccc1F)C(=O)O; Gly(octyl) = CCCCCCCC[C@H](N)C(=O)O; d(hPhe) = N[C@H](CCc1ccccc1)C(=O)O; hhPhe = N[C@@H](CCCc1ccccc1)C(=O)O; d(hLeu) = CC(C)CC[C@@H](N)C(=O)O; hPhe = N[C@@H](CCc1ccccc1)C(=O)O; dAoc(2) = CCCCCC[C@@H](N)C(=O)O; hLeu = CC(C)CC[C@H](N)C(=O)O; Octanoyl = CCCCCCCC(=O)*; Dab = NCC[C@H](N)C(=O)O

Assay: Hemolytic activity in human RBC at 400 ug/ml after 1 hr
Type: toxicity, cell-based, Erythrocyte
Details: red blood cells (erythrocytes), at 400 µg/mL, read-out: Activity

CCCCCCCC(=O)N[C@@H](CCN)C(=O)N[C@H](C(=O)N[C@@H](CCN)C(=O)N[C@H]1CCNC(=O)[C@H]([C@@H](C)O)NC(=O)[C@H](CCN)NC(=O)[C@H](CCN)NC(=O)[C@H](CCCc2ccccc2)NC(=O)[C@@H](Cc2ccccc2)NC(=O)[C@H](CCN)NC1=O)[C@@H](C)O
hemolysis at 1 h, 400 ug/ml: < 10%

CCCCCCCC(=O)N[C@@H](CCN)C(=O)N[C@H](C(=O)N[C@@H](CCN)C(=O)N[C@H]1CCNC(=O)[C@H]([C@@H](C)O)NC(=O)[C@H](CCN)NC(=O)[C@H](CCN)NC(=O)[C@H](CC(C)C)NC(=O)[C@@H](Cc2ccc(Br)cc2)NC(=O)[C@H](CCN)NC1=O)[C@@H](C)O
hemolysis at 1 h, 400 ug/ml: < 10%

CCCCCCCC(=O)N[C@@H](CCN)C(=O)N[C@H](C(=O)N[C@@H](CCN)C(=O)N[C@H]1CCNC(=O)[C@H]([C@@H](C)O)NC(=O)[C@H](CCN)NC(=O)[C@H](CCN)NC(=O)[C@H](CCCCCC)NC(=O)[C@@H](Cc2ccccc2)NC(=O)[C@H](CCN)NC1=O)[C@@H](C)O
hemolysis at 1 h, 400 ug/ml: < 10%

CC(=O)N[C@H](Cc1ccccc1F)C(=O)N[C@@H](CCN)C(=O)N[C@H](C(=O)N[C@@H](CCN)C(=O)N[C@H]1CCNC(=O)[C@H]([C@@H](C)O)NC(=O)[C@H](CCN)NC(=O)[C@H](CCN)NC(=O)[C@H](CC(C)C)NC(=O)[C@@H](Cc2ccccc2)NC(=O)[C@@H](CCN)NC1=O)[C@H](C)O
hemolysis at 1 h, 400 ug/ml: < 10%

CCCCCCCC(=O)N[C@@H](CCN)C(=O)N[C@H](C(=O)N[C@@H](CCN)C(=O)N[C@H]1CCNC(=O)[C@H]([C@@H](C)O)NC(=O)[C@H](CCN)NC(=O)[C@H](CCN)NC(=O)[C@H](Cc2ccccc2)NC(=O)[C@@H](CCC(C)C)NC(=O)[C@H](CCN)NC1=O)[C@@H](C)O (Octanoyl-[Dab]T[Dab][Dab][Dab][d(hLeu)]F[Dab][Dab]T; lactam 4-C)
hemolysis at 1 h, 400 ug/ml: < 10%

CCCCCCCC(=O)N[C@@H](CCN)C(=O)N[C@H](C(=O)N[C@@H](CCN)C(=O)N[C@H]1CCNC(=O)[C@H]([C@@H](C)O)NC(=O)[C@H](CCN)NC(=O)[C@H](CCN)NC(=O)[C@H](Cc2ccccc2)NC(=O)[C@@H](CCc2ccccc2)NC(=O)[C@H](CCN)NC1=O)[C@@H](C)O (Octanoyl-[Dab]T[Dab][Dab][Dab][d(hPhe)]F[Dab][Dab]T; lactam 4-C)
hemolysis at 1 h, 400 ug/ml: < 10%

CCCCCCCC(=O)N[C@@H](CCN)C(=O)N[C@H](C(=O)N[C@@H](CCN)C(=O)N[C@H]1CCNC(=O)[C@H]([C@@H](C)O)NC(=O)[C@H](CCN)NC(=O)[C@H](CCN)NC(=O)[C@H](CC(C)C)NC(=O)[C@@H](CCc2ccccc2)NC(=O)[C@H](CCN)NC1=O)[C@@H](C)O (Octanoyl-[Dab]T[Dab][Dab][Dab][d(hPhe)]L[Dab][Dab]T; lactam 4-C)
hemolysis at 1 h, 400 ug/ml: < 10%

CCCCCCCC(=O)N[C@@H](CCN)C(=O)N[C@H](C(=O)N[C@@H](CCN)C(=O)N[C@H]1CCNC(=O)[C@H]([C@@H](C)O)NC(=O)[C@H](CCN)NC(=O)[C@H](CCN)NC(=O)[C@H](Cc2ccccc2)NC(=O)[C@@H](CCCc2ccccc2)NC(=O)[C@H](CCN)NC1=O)[C@@H](C)O (Octanoyl-[Dab]T[Dab][Dab][Dab][d(hhPhe)]F[Dab][Dab]T; lactam 4-C)
hemolysis at 1 h, 400 ug/ml: < 10%

CCCCCCCC(=O)N[C@@H](CCN)C(=O)N[C@H](C(=O)N[C@@H](CCN)C(=O)N[C@H]1CCNC(=O)[C@H]([C@@H](C)O)NC(=O)[C@H](CCN)NC(=O)[C@H](CCN)NC(=O)[C@H](CC(C)C)NC(=O)[C@@H](CCCc2ccccc2)NC(=O)[C@H](CCN)NC1=O)[C@@H](C)O (Octanoyl-[Dab]T[Dab][Dab][Dab][d(hhPhe)]L[Dab][Dab]T; lactam 4-C)
hemolysis at 1 h, 400 ug/ml: < 10%

CCCCCCCC(=O)N[C@@H](CCN)C(=O)N[C@H](C(=O)N[C@@H](CCN)C(=O)N[C@H]1CCNC(=O)[C@H]([C@@H](C)O)NC(=O)[C@H](CCN)NC(=O)[C@H](CCN)NC(=O)[C@H](Cc2ccccc2)NC(=O)[C@@H](CCCCCC)NC(=O)[C@H](CCN)NC1=O)[C@@H](C)O (Octanoyl-[Dab]T[Dab][Dab][Dab][dAoc(2)]F[Dab][Dab]T; lactam 4-C)
hemolysis at 1 h, 400 ug/ml: < 10%

CCCCCCCC[C@@H]1NC(=O)[C@@H](Cc2ccccc2)NC(=O)[C@H](CCN)NC(=O)[C@@H](NC(=O)[C@H](CCN)NC(=O)[C@@H](NC(=O)[C@H](CCN)NC(=O)CCCCCCC)[C@@H](C)O)CCNC(=O)[C@H]([C@@H](C)O)NC(=O)[C@H](CCN)NC(=O)[C@H](CCN)NC1=O (Octanoyl-[Dab]T[Dab][Dab][Dab][dF][Gly(octyl)][Dab][Dab]T; lactam 4-C)
hemolysis at 1 h, 400 ug/ml: < 10%

CCCCCCCC(=O)N[C@@H](CCN)C(=O)N[C@H](C(=O)N[C@@H](CCN)C(=O)N[C@H]1CCNC(=O)[C@H]([C@@H](C)O)NC(=O)[C@H](CCN)NC(=O)[C@H](CCN)NC(=O)[C@H](CCC(C)C)NC(=O)[C@@H](Cc2ccccc2)NC(=O)[C@H](CCN)NC1=O)[C@@H](C)O (Octanoyl-[Dab]T[Dab][Dab][Dab][dF][hLeu][Dab][Dab]T; lactam 4-C)
hemolysis at 1 h, 400 ug/ml: < 10%

CCCCCCCC(=O)N[C@@H](CCN)C(=O)N[C@H](C(=O)N[C@@H](CCN)C(=O)N[C@H]1CCNC(=O)[C@H]([C@@H](C)O)NC(=O)[C@H](CCN)NC(=O)[C@H](CCN)NC(=O)[C@H](Cc2ccccc2F)NC(=O)[C@@H](CC(C)C)NC(=O)[C@H](CCN)NC1=O)[C@@H](C)O (Octanoyl-[Dab]T[Dab][Dab][Dab][dL][Phe(2-F)][Dab][Dab]T; lactam 4-C)
hemolysis at 1 h, 400 ug/ml: < 10%

CCCCCCCC(=O)N[C@@H](CCN)C(=O)N[C@H](C(=O)N[C@@H](CCN)C(=O)N[C@H]1CCNC(=O)[C@H]([C@@H](C)O)NC(=O)[C@H](CCN)NC(=O)[C@H](CCN)NC(=O)[C@H](Cc2cc(F)c(F)c(F)c2)NC(=O)[C@@H](CC(C)C)NC(=O)[C@H](CCN)NC1=O)[C@@H](C)O (Octanoyl-[Dab]T[Dab][Dab][Dab][dL][Phe(3,4,5-F3)][Dab][Dab]T; lactam 4-C)
hemolysis at 1 h, 400 ug/ml: < 10%

CCCCCCCC(=O)N[C@@H](CCN)C(=O)N[C@H](C(=O)N[C@@H](CCN)C(=O)N[C@H]1CCNC(=O)[C@H]([C@@H](C)O)NC(=O)[C@H](CCN)NC(=O)[C@H](CCN)NC(=O)[C@H](Cc2cccc(F)c2)NC(=O)[C@@H](CC(C)C)NC(=O)[C@H](CCN)NC1=O)[C@@H](C)O (Octanoyl-[Dab]T[Dab][Dab][Dab][dL][Phe(3-F)][Dab][Dab]T; lactam 4-C)
hemolysis at 1 h, 400 ug/ml: < 10%

CCCCCCCC(=O)N[C@@H](CCN)C(=O)N[C@H](C(=O)N[C@@H](CCN)C(=O)N[C@H]1CCNC(=O)[C@H]([C@@H](C)O)NC(=O)[C@H](CCN)NC(=O)[C@H](CCN)NC(=O)[C@H](Cc2ccc(Br)cc2)NC(=O)[C@@H](CC(C)C)NC(=O)[C@H](CCN)NC1=O)[C@@H](C)O (Octanoyl-[Dab]T[Dab][Dab][Dab][dL][Phe(4-Br)][Dab][Dab]T; lactam 4-C)
hemolysis at 1 h, 400 ug/ml: < 10%

CCCCCCCC(=O)N[C@@H](CCN)C(=O)N[C@H](C(=O)N[C@@H](CCN)C(=O)N[C@H]1CCNC(=O)[C@H]([C@@H](C)O)NC(=O)[C@H](CCN)NC(=O)[C@H](CCN)NC(=O)[C@H](Cc2ccc(C(F)(F)F)cc2)NC(=O)[C@@H](CC(C)C)NC(=O)[C@H](CCN)NC1=O)[C@@H](C)O (Octanoyl-[Dab]T[Dab][Dab][Dab][dL][Phe(4-CF3)][Dab][Dab]T; lactam 4-C)
hemolysis at 1 h, 400 ug/ml: < 10%

CCCCCCCC(=O)N[C@@H](CCN)C(=O)N[C@H](C(=O)N[C@@H](CCN)C(=O)N[C@H]1CCNC(=O)[C@H]([C@@H](C)O)NC(=O)[C@H](CCN)NC(=O)[C@H](CCN)NC(=O)[C@H](Cc2ccc(Cl)cc2)NC(=O)[C@@H](CC(C)C)NC(=O)[C@H](CCN)NC1=O)[C@@H](C)O (Octanoyl-[Dab]T[Dab][Dab][Dab][dL][Phe(4-Cl)][Dab][Dab]T; lactam 4-C)
hemolysis at 1 h, 400 ug/ml: < 10%

CCCCCCCC(=O)N[C@@H](CCN)C(=O)N[C@H](C(=O)N[C@@H](CCN)C(=O)N[C@H]1CCNC(=O)[C@H]([C@@H](C)O)NC(=O)[C@H](CCN)NC(=O)[C@H](CCN)NC(=O)[C@H](Cc2ccc(F)cc2)NC(=O)[C@@H](CC(C)C)NC(=O)[C@H](CCN)NC1=O)[C@@H](C)O (Octanoyl-[Dab]T[Dab][Dab][Dab][dL][Phe(4-F)][Dab][Dab]T; lactam 4-C)
hemolysis at 1 h, 400 ug/ml: < 10%

CCCCCCCC(=O)N[C@@H](CCN)C(=O)N[C@H](C(=O)N[C@@H](CCN)C(=O)N[C@H]1CCNC(=O)[C@H]([C@@H](C)O)NC(=O)[C@H](CCN)NC(=O)[C@H](CCN)NC(=O)[C@H](CCc2ccccc2)NC(=O)[C@@H](CC(C)C)NC(=O)[C@H](CCN)NC1=O)[C@@H](C)O (Octanoyl-[Dab]T[Dab][Dab][Dab][dL][hPhe][Dab][Dab]T; lactam 4-C)
hemolysis at 1 h, 400 ug/ml: < 10%

CCCCCCCC(=O)N[C@@H](CCN)C(=O)N[C@H](C(=O)N[C@@H](CCN)C(=O)N[C@H]1CCNC(=O)[C@H]([C@@H](C)O)NC(=O)[C@H](CCN)NC(=O)[C@H](CCN)NC(=O)[C@H](CCCc2ccccc2)NC(=O)[C@@H](CC(C)C)NC(=O)[C@H](CCN)NC1=O)[C@@H](C)O (Octanoyl-[Dab]T[Dab][Dab][Dab][dL][hhPhe][Dab][Dab]T; lactam 4-C)
hemolysis at 1 h, 400 ug/ml: < 10%

CCCCCCCC(=O)N[C@@H](CCN)C(=O)N[C@H](C(=O)N[C@@H](CCN)C(=O)N[C@H]1CCNC(=O)[C@H]([C@@H](C)O)NC(=O)[C@H](CCN)NC(=O)[C@H](CCN)NC(=O)[C@H](CC(C)C)NC(=O)[C@@H](Cc2ccccc2F)NC(=O)[C@H](CCN)NC1=O)[C@@H](C)O (Octanoyl-[Dab]T[Dab][Dab][Dab][dPhe(2-F)]L[Dab][Dab]T; lactam 4-C)
hemolysis at 1 h, 400 ug/ml: < 10%

CCCCCCCC(=O)N[C@@H](CCN)C(=O)N[C@H](C(=O)N[C@@H](CCN)C(=O)N[C@H]1CCNC(=O)[C@H]([C@@H](C)O)NC(=O)[C@H](CCN)NC(=O)[C@H](CCN)NC(=O)[C@H](CC(C)C)NC(=O)[C@@H](Cc2cc(F)c(F)c(F)c2)NC(=O)[C@H](CCN)NC1=O)[C@@H](C)O (Octanoyl-[Dab]T[Dab][Dab][Dab][dPhe(3,4,5-F3)]L[Dab][Dab]T; lactam 4-C)
hemolysis at 1 h, 400 ug/ml: < 10%

CCCCCCCC(=O)N[C@@H](CCN)C(=O)N[C@H](C(=O)N[C@@H](CCN)C(=O)N[C@H]1CCNC(=O)[C@H]([C@@H](C)O)NC(=O)[C@H](CCN)NC(=O)[C@H](CCN)NC(=O)[C@H](CC(C)C)NC(=O)[C@@H](Cc2cccc(F)c2)NC(=O)[C@H](CCN)NC1=O)[C@@H](C)O (Octanoyl-[Dab]T[Dab][Dab][Dab][dPhe(3-F)]L[Dab][Dab]T; lactam 4-C)
hemolysis at 1 h, 400 ug/ml: < 10%
